One assay concerns E. coli ESS Kan^r. In words: Paper disc filter antibiotic assay (zone of inhibition). It counts as cell-based, Escherichia coli. The protocol: Escherichia coli ESS Kan^r, is a kanamycin resistant strain of E. coli ESS, derived by transducing E. coli ESS with P1:TnV, Kan^r. This strain was used for the standard antibiotic assays.
LB Kan medium was solidified by 1.5% Bacto agar (Difco). For the antibiotic assay, Nutrient Broth agar plates were used. NB medium is 0.8% Nutrient Broth (Difco) containing 0.5% NaCl (Merck). NB was solidified by 1.8% Bacto agar (Difco). The NB plates were overlaid by 3.5 ml NB soft agar (0.9% Bacto agar) mixed with 0.1 ml E. coli ESS Kan^r overnight culture.
Antibiotic activity against E. coli ESS Kan^r was determined by the paper disc filter assay (Leo et al., 1945). Unknown quantities of antibiotic TA or Focusin, dissolved in ethanol, saline or NB were applied to paper disc filters (6 mm diameter; Schleicher and Schull). After allowing the ethanol to evaporate in the hood for about 15 mins, the dry filters were placed on nutrient broth plates which had been overlaid with an overnight culture of E. coli ESS Kan^r as described above.
The diameter of the zone of inhibition was recorded after 18 hours in incubation at 37° C. The concentration of the antibacterial agents were determined from a standard inhibition curve prepared with known quantities of TA and Focusin.

Another assay relates to Bacillus subtilis. Kind of assay: Antimicrobial spectrum, liquid media, viable cell count. It counts as cell-based. Conditions: saturating concentrations. As to the method: (§1) Saturated solutions of TA and Focusin were prepared by adding 1.14 μg TA and 7 μg Focusin to 1 ml LB (final conc. of 1% ethanol). About 10^5 bacteria of various strains were then added. The control was bacteria in the same medium with no antibacterial agents. The bacteria were introduced at 37° C. with shaking at 100 rpm. When the control became turbid, viable cell count was performed on LB agar plates. Growth inhibition is presented as percentage of the no antibiotic control.

The test system of the next assay is Citrobacter diversus. Described as above. It counts as cell-based. Conditions: saturating concentrations. The protocol:
as §1

Another assay relates to Erwinia herbicola. The assay is described as above. It counts as cell-based. As to conditions: saturating concentrations. As to the method:
as §1

For a further assay, the system named is Helicobacter pilori. The description is as above. It counts as cell-based. Conditions: saturating concentrations. The protocol:
as §1

A further assay relates to Klebsiella Gr47. Described as above. It counts as cell-based. As to conditions: saturating concentrations; hospital strain. The protocol:
as §1

The subject of a further assay is Klebsiella pneumoniae. The assay is described as above. It counts as cell-based. Conditions: saturating concentrations; hospital strain. The protocol:
as §1

In the next assay the test system is Klebsiella sp. The description is as above. It counts as cell-based. As to conditions: saturating concentrations; hospital strain. As to the method: as §1
The next assay deals with Proteus vulgaris. Described as above. It counts as cell-based. Conditions: saturating concentrations. The protocol:
as §1

A further assay deals with Providencia strautii. Described as above. It counts as cell-based. Conditions: saturating concentrations. The protocol:
as §1

A further assay relates to Pseudomonas aeruginosa. Described as above. It counts as cell-based. As to conditions: saturating concentrations. The protocol:
as §1

The subject of a further assay is Salmonella thyphimurium. Described as above. It counts as cell-based. Conditions: saturating concentrations. As to the method: as §1
In a further assay the test system is Staphylococcus albus. Described as above. It counts as cell-based. The protocol: as §1
In another assay the test system is Mycobacteria smegmatis. The description is as above. It counts as cell-based, Mycobacterium smegmatis. Conditions: saturating concentrations. As to the method: as §1
In another assay the test system is tested bacterial strains. Kind of assay: Antimicrobial spectrum, overall. It counts as cell-based. The protocol:
as §1

The record followed here is patent publication US5532231A, “Antibacterial agent” (priority 1994, dated 1996).

The structures appear in SMILES notation.

On to `CCCC1OC(=O)C(C)CC(C)CCCCC(=O)CCCC(CC)CCCC(COC)CCC(O)C(O)CC(O)CNC1=O` (stereo not shown) [Focusin], for which the “activity relative to TA at high concentrations” value in the assay with E. coli ESS Kan^r (high concentrations) was 1/10. Also, in the assay with E. coli ESS Kan^r (low concentrations), the “activity relative to TA at low concentrations” value is given as “approximately 1/8”. Also, in the assay on E. coli ESS Kan^r (zone 11 mm, paper disc), the “amount giving an inhibition zone of 11 mm” value is listed as 640 ng. In the assay with E. coli ESS Kan^r (zone about 2 mm, paper disc), the “amount required to obtain a zone of inhibition of about 2 mm” value is on record as 60 ng. Further, the killing amounted to 100% in the assay with Bacillus subtilis; 100% in the assay on Citrobacter diversus; 100% in the assay on Erwinia herbicola; 100% in the assay on Helicobacter pilori; 100% in the assay on Klebsiella Gr47; 96% with Klebsiella pneumoniae. Moreover, the killing is recorded as 60% in the assay with Klebsiella sp; 90% with Proteus vulgaris; 100% in the assay with Providencia strautii; 0% in the assay on Pseudomonas aeruginosa; 40% with Salmonella thyphimurium; 73% in the assay on Staphylococcus albus (saturating concentrations (Focusin), on the 46th hour). In the assay with Mycobacteria smegmatis, this molecule came in with a killing of 0%. In addition, the “incubation time after which the strain began to show sensitivity” value in the assay on Staphylococcus albus (saturating concentrations) was above 46 h. Moreover, the “antibacterial activity spectrum (in words)” value in the assay with tested bacterial strains was “broad spectrum antibacterial activity against both Gram-positive and Gram-negative bacteria”.
